Test results taken from patent US7932290B2, “Method for the treatment of metabolic disorders” (Wellstat Biologics Corporation, priority 2003, dated 2011).

Legend:
Test in all cases: Transcription activation potential, GAL4 luciferase reporter in C3A cells
Assay type in all cases: cell-based
[1] = molecular target: T1, Mouse PPARγ LBD fusion protein (Mus musculus, UniProt P37238)
T1 sequence (P37238 238-503): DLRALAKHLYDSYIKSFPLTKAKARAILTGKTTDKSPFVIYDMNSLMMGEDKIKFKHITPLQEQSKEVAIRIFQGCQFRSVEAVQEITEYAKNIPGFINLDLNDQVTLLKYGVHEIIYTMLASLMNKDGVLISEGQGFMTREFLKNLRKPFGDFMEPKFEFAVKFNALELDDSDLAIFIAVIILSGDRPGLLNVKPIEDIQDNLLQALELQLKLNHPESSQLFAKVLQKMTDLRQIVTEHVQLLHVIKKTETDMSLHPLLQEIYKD
Description: (§1) Cells were seeded in 24 well plates the day prior to transfection at 5×10^4−2×10^5 cells/well, depending upon cell type. Cells were transfected using Lipofectamine 2000 reagent from Invitrogen. A total of 0.8 μg DNA/well was added to 50 μL of Optimem Reduced Serum media (serum free; Gibco). Lipofectamine 2000 was added (2.5 μL/well) to another tube containing 50 μL of Optimem media. Plasmid DNA was added at a ratio of 4:3 (reporter:activator); where appropriate, salmon sperm DNA was substituted for activator expressing plasmid. […] DNA constructs containing the mouse PPARα or PPARγ LBD fused to the GAL4 DNA binding domain were also used. The two solutions were incubated at room temperature for 5 min, and then combined. The combined solution was incubated at room temperature for approximately 30 min. Cells were washed once with PBS, and 100 μL of transfection mix added to each well. Plates were incubated at 37° C. in a 5% CO2 incubator for 4.5 hr, followed by aspiration of the transfection mix, with plates refed using EMEM complete media (supplemented with 10% FBS, 1× Glutamine). 24 hr post-transfection, plates were treated with the appropriate compounds in EMEM complete media, followed by washing once with PBS and addition of 100 μL 1× reporter lysis buffer/well (Promega) 24 hr after treatment. Plates went through one freeze/thaw cycle prior to analysis. Approximately 10 μL of lysate was added to 100 μL of firefly luciferase substrate, mixed by pipetting, and analyzed on a luminometer for 10 s using the integration function (relative luciferase units/RLU) or on a Microbeta Trilux (luciferase counts per second/LCPS). Each treatment was performed in triplicate, and in multiple, separate experiments.

[2] = test system: Human PPARγ LBD fusion protein
Description: as §1

[3] = molecular target: T2, Human PPARα LBD fusion protein (Homo sapiens, UniProt Q07869)
T2 construct: a.a; 167-468)
T2 sequence (Q07869 167-468): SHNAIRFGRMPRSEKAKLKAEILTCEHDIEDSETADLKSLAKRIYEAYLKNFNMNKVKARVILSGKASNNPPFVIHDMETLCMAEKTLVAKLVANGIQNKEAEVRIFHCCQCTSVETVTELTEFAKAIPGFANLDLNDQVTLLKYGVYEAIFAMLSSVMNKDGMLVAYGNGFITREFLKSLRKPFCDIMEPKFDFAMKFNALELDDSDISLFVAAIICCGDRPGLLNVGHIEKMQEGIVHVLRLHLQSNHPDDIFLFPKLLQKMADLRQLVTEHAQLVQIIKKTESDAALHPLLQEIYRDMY

[4] = molecular target: T3, Mouse PPARα LBD fusion protein (Mus musculus, UniProt P23204)
T3 sequence (P23204 239-466): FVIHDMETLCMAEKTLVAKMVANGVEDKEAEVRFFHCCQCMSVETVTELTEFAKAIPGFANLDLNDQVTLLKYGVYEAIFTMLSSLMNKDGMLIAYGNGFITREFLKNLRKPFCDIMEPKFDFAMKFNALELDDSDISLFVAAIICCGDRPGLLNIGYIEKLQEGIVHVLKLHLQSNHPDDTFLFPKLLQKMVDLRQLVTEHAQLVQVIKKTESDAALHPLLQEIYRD

In the case of `Cc1cccc(C)c1COc1cccc(CC(=O)O)c1` [Compound CF, 3-(2,6-Dimethylbenzyloxy)phenylacetic acid], the “transcription activation potential (luciferase) ± standard deviation” value ([1]; 1 μM test compound, Table 20b) is reported as 0.33 ± 0.21 LCPS, the “transcription activation potential (luciferase) ± standard deviation” value ([1]; 1 μM, Table 21b) is reported as 146 ± 119 RLU and the “transcription activation potential (luciferase) ± standard deviation” value ([1]; 3 μM test compound, Table 20b) is reported as 10.6 ± 8.74 LCPS. For the same compound, the “transcription activation potential (luciferase) ± standard deviation” value ([1]; 3 μM, Table 21b) was 579 ± 557 RLU, the “transcription activation potential (luciferase) ± standard deviation” value ([1]; 5 μM, Table 21b) was 476 ± 527 RLU and the “transcription activation potential (luciferase) ± standard deviation” value ([1]; 7 μM, Table 21b) was 834 ± 984 RLU. For the same compound, the “transcription activation potential (luciferase) ± standard deviation” value ([1]; 10 μM test compound, Table 20b) was 17.2 ± 21 LCPS, the “transcription activation potential (luciferase) ± standard deviation” value ([1]; 10 μM, Table 21b) was 207 ± 107 RLU and the “transcription activation potential (luciferase) ± standard deviation” value ([1]; 30 μM test compound, Table 20b) was 88.2 ± 33.2 LCPS. The “transcription activation potential (luciferase) ± standard deviation” value ([1]; 30 μM, Table 21b) was 818 ± 1201 RLU, the “transcription activation potential (luciferase) ± standard deviation” value ([1]; 100 μM test compound, Table 20b) was 45.8 ± 36.9 LCPS and the “transcription activation potential (luciferase) ± standard deviation” value ([1]; 100 μM, Table 21b) was 237 ± 216 RLU. For the same compound, the “transcription activation potential (luciferase) ± standard deviation” value ([1]; 200 μM test compound, Table 20b) was 93.6 ± 29.7 LCPS, the “transcription activation potential (luciferase) ± standard deviation” value ([2]; 1 μM test compound) was 6.2 ± 0.6 LCPS and the “transcription activation potential (luciferase) ± standard deviation” value ([2]; 3 μM test compound) was 49.4 ± 7.8 LCPS. The “transcription activation potential (luciferase) ± standard deviation” value ([2]; 10 μM test compound) was 141.5 ± 25.9 LCPS, the “transcription activation potential (luciferase) ± standard deviation” value ([2]; 30 μM test compound) was 230.4 ± 97.2 LCPS and the “transcription activation potential (luciferase) ± standard deviation” value ([2]; 100 μM test compound) was 225.2 ± 57.5 LCPS. For the same compound, the “transcription activation potential (luciferase) ± standard deviation” value ([2]; 200 μM test compound) was 280.1 ± 89.7 LCPS, the “transcription activation potential (luciferase) ± standard deviation” value ([3]; 1 μM) was 37 ± 11.5 LCPS and the “transcription activation potential (luciferase) ± standard deviation” value ([3]; 3 μM) was 47 ± 22.8 LCPS. The “transcription activation potential (luciferase) ± standard deviation” value ([3]; 10 μM) was 19.9 ± 7.8 LCPS, the “transcription activation potential (luciferase) ± standard deviation” value ([3]; 30 μM) was 40.2 ± 18.9 LCPS and the “transcription activation potential (luciferase) ± standard deviation” value ([3]; 100 μM) was 19 ± 14.2 LCPS. The “transcription activation potential (luciferase) ± standard deviation” value ([3]; 200 μM) was 12.9 ± 8.3 LCPS, the “transcription activation potential (luciferase) ± standard deviation” value ([4]; 1 μM, Table 20a) was 13.17 ± 7.84 LCPS and the “transcription activation potential (luciferase) ± standard deviation” value ([4]; 1 μM, Table 21a) was 2694 ± 159 RLU. The “transcription activation potential (luciferase) ± standard deviation” value ([4]; 3 μM, Table 20a) was 5.63 ± 0.42 LCPS, the “transcription activation potential (luciferase) ± standard deviation” value ([4]; 3 μM, Table 21a) was 4527 ± 740 RLU and the “transcription activation potential (luciferase) ± standard deviation” value ([4]; 5 μM, Table 21a) was 7188 ± 1753 RLU. For the same compound, the “transcription activation potential (luciferase) ± standard deviation” value ([4]; 7 μM, Table 21a) was 14325 ± 1032 RLU, the “transcription activation potential (luciferase) ± standard deviation” value ([4]; 10 μM, Table 20a) was 153.15 ± 24.4 LCPS and the “transcription activation potential (luciferase) ± standard deviation” value ([4]; 10 μM, Table 21a) was 16680 ± 2432 RLU. For the same compound, the “transcription activation potential (luciferase) ± standard deviation” value ([4]; 30 μM, Table 20a) was 358.6 ± 5.23 LCPS, the “transcription activation potential (luciferase) ± standard deviation” value ([4]; 30 μM, Table 21a) was 38105 ± 3133 RLU and the “transcription activation potential (luciferase) ± standard deviation” value ([4]; 100 μM, Table 20a) was 201.5 ± 50.84 LCPS. For the same compound, the “transcription activation potential (luciferase) ± standard deviation” value ([4]; 100 μM, Table 21a) was 41037 ± 5401 RLU and the “transcription activation potential (luciferase) ± standard deviation” value ([4]; 200 μM, Table 20a) was 106.77 ± 32.53 LCPS.
